Reference: ChEMBL document CHEMBL1142255, “Potent pyrrolidine- and piperidine-based BACE-1 inhibitors” (Bioorg Med Chem Lett, 2008)

Target: T1, Beta-secretase 1 (Homo sapiens, UniProt P56817)
T1 sequence (P56817 whole entry): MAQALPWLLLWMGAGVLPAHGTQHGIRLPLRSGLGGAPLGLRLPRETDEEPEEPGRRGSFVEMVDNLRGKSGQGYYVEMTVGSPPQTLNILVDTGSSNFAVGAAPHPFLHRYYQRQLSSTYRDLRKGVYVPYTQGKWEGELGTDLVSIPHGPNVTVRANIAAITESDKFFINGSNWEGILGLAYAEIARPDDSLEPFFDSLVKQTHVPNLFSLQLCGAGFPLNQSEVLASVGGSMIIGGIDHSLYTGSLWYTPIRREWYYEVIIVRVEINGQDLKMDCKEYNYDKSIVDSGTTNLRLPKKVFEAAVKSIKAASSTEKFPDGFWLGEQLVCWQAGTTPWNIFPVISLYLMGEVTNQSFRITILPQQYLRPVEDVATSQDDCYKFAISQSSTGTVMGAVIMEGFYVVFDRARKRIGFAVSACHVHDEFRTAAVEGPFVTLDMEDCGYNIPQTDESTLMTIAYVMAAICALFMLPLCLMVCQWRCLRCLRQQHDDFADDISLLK

Row | Compound | IC50 [nM]
1 | CCCN(CCC)C(=O)c1cc(C)cc(C(=O)N[C@@H](Cc2cc(F)cc(F)c2)[C@H](O)[C@H]2CCCN2)c1 | 65
2 | CCCN(CCC)C(=O)c1cc(C)cc(C(=O)N[C@@H](Cc2cc(F)cc(F)c2)[C@H](O)[C@H]2C[C@@H](OC(C)=O)CCN2)c1 | 2000
3 | CCCN(CCC)C(=O)c1cc(C)cc(C(=O)N[C@@H](Cc2cc(F)cc(F)c2)[C@H](O)[C@H]2C[C@@H](CCc3ccccc3)CCN2)c1 | 191
4 | CCCN(CCC)C(=O)c1cc(C)cc(C(=O)N[C@@H](Cc2cc(F)cc(F)c2)[C@H](O)[C@H]2C[C@@H](CC3CCCCC3)CCN2)c1 | 630
5 | CCCN(CCC)C(=O)c1cc(C)cc(C(=O)N[C@@H](Cc2cc(F)cc(F)c2)[C@H](O)[C@H]2C[C@@H](C3CCCCC3)CCN2)c1 | 610
6 | CCCN(CCC)C(=O)c1cc(C)cc(C(=O)N[C@@H](Cc2cc(F)cc(F)c2)[C@H](O)[C@H]2C[C@@H](OCCOC)CCN2)c1 | 4
7 | CCCN(CCC)C(=O)c1cc(C)cc(C(=O)N[C@@H](Cc2cc(F)cc(F)c2)[C@H](O)[C@H]2C[C@@H](Cc3ccccc3OC)CCN2)c1 | 1350
8 | CCCN(CCC)C(=O)c1cc(C)cc(C(=O)N[C@@H](Cc2cc(F)cc(F)c2)[C@H](O)[C@H]2C[C@@H](Cc3cccc(OC)c3)CCN2)c1 | 330
9 | CCCN(CCC)C(=O)c1cc(C)cc(C(=O)N[C@@H](Cc2cc(F)cc(F)c2)[C@H](O)[C@H]2CCN2)c1 | 770
10 | CCCN(CCC)C(=O)c1cc(C)cc(C(=O)N[C@@H](Cc2cc(F)cc(F)c2)[C@H](O)[C@H]2C[C@@H](OCC3CC3)CCN2)c1 | 6
11 | CCCN(CCC)C(=O)c1cc(C)cc(C(=O)N[C@@H](Cc2cc(F)cc(F)c2)[C@H](O)[C@H]2C[C@@H](Cc3ccc(OC)cc3)CCN2)c1 | 440

More lines, in order of falling IC50, values ahead:

Row | IC50 [nM] | Compound
12 | 187 | CCCN(CCC)C(=O)c1cc(C)cc(C(=O)N[C@@H](Cc2cc(F)cc(F)c2)[C@H](O)[C@H]2C[C@@H](OC)CN2)c1
13 | 120 | CCCN(CCC)C(=O)c1cc(C)cc(C(=O)N[C@@H](Cc2cc(F)cc(F)c2)[C@H](O)[C@H]2C[C@@H](OC(C)C)CCN2)c1
14 | 89 | CCCN(CCC)C(=O)c1cc(C)cc(C(=O)N[C@@H](Cc2cc(F)cc(F)c2)[C@H](O)[C@H]2C[C@@H](O)CN2)c1
15 | 70 | CCC[C@H]1CCN[C@@H]([C@@H](O)[C@H](Cc2cc(F)cc(F)c2)NC(=O)c2cc(C)cc(C(=O)N(CCC)CCC)c2)C1
16 | 26 | CCCN(CCC)C(=O)c1cc(C)cc(C(=O)N[C@@H](Cc2cc(F)cc(F)c2)[C@H](O)[C@H]2C[C@@H](OCCN(C)C)CCN2)c1
17 | 12 | CCCN(CCC)C(=O)c1cc(C)cc(C(=O)N[C@@H](Cc2cc(F)cc(F)c2)[C@H](O)[C@H]2C[C@@H](OCC3CCCCC3)CCN2)c1
18 | 7 | CCCCO[C@H]1CCN[C@@H]([C@@H](O)[C@H](Cc2cc(F)cc(F)c2)NC(=O)c2cc(C)cc(C(=O)N(CCC)CCC)c2)C1

Target: T1, Beta-secretase 1
Remark: another data set of the same source

Row | Compound | IC50 [nM]
19 | CCCN(CCC)C(=O)c1cc(C)cc(C(=O)N[C@@H](Cc2cc(F)cc(F)c2)[C@H](O)[C@H]2CCCN2)c1 | 330
20 | CCCN(CCC)C(=O)c1cc(C)cc(C(=O)N[C@@H](Cc2cc(F)cc(F)c2)[C@H](O)[C@H]2C[C@@H](OC(C)=O)CCN2)c1 | 3000
21 | CCCN(CCC)C(=O)c1cc(C)cc(C(=O)N[C@@H](Cc2cc(F)cc(F)c2)[C@H](O)[C@H]2C[C@@H](CCc3ccccc3)CCN2)c1 | 1850
22 | CCCN(CCC)C(=O)c1cc(C)cc(C(=O)N[C@@H](Cc2cc(F)cc(F)c2)[C@H](O)[C@H]2C[C@@H](CC3CCCCC3)CCN2)c1 | 2000
23 | CCCN(CCC)C(=O)c1cc(C)cc(C(=O)N[C@@H](Cc2cc(F)cc(F)c2)[C@H](O)[C@H]2C[C@@H](C3CCCCC3)CCN2)c1 | 4200
24 | CCCN(CCC)C(=O)c1cc(C)cc(C(=O)N[C@@H](Cc2cc(F)cc(F)c2)[C@H](O)[C@H]2C[C@@H](OCCOC)CCN2)c1 | 110
25 | CCCN(CCC)C(=O)c1cc(C)cc(C(=O)N[C@@H](Cc2cc(F)cc(F)c2)[C@H](O)[C@H]2CCN2)c1 | 2800
26 | CCCN(CCC)C(=O)c1cc(C)cc(C(=O)N[C@@H](Cc2cc(F)cc(F)c2)[C@H](O)[C@H]2C[C@@H](OCC3CC3)CCN2)c1 | 121
27 | CCCN(CCC)C(=O)c1cc(C)cc(C(=O)N[C@@H](Cc2cc(F)cc(F)c2)[C@H](O)[C@H]2C[C@@H](Cc3ccc(OC)cc3)CCN2)c1 | 2000

Now from value to compound:

Row | IC50 [nM] | Compound
28 | 780 | CCCN(CCC)C(=O)c1cc(C)cc(C(=O)N[C@@H](Cc2cc(F)cc(F)c2)[C@H](O)[C@H]2C[C@@H](OC)CN2)c1
29 | 858 | CCCN(CCC)C(=O)c1cc(C)cc(C(=O)N[C@@H](Cc2cc(F)cc(F)c2)[C@H](O)[C@H]2C[C@@H](OC(C)C)CCN2)c1
30 | 1450 | CCCN(CCC)C(=O)c1cc(C)cc(C(=O)N[C@@H](Cc2cc(F)cc(F)c2)[C@H](O)[C@H]2C[C@@H](O)CN2)c1
31 | 1200 | CCC[C@H]1CCN[C@@H]([C@@H](O)[C@H](Cc2cc(F)cc(F)c2)NC(=O)c2cc(C)cc(C(=O)N(CCC)CCC)c2)C1
32 | 482 | CCCN(CCC)C(=O)c1cc(C)cc(C(=O)N[C@@H](Cc2cc(F)cc(F)c2)[C@H](O)[C@H]2C[C@@H](OCCN(C)C)CCN2)c1
33 | 567 | CCCN(CCC)C(=O)c1cc(C)cc(C(=O)N[C@@H](Cc2cc(F)cc(F)c2)[C@H](O)[C@H]2C[C@@H](OCC3CCCCC3)CCN2)c1
34 | 160 | CCCCO[C@H]1CCN[C@@H]([C@@H](O)[C@H](Cc2cc(F)cc(F)c2)NC(=O)c2cc(C)cc(C(=O)N(CCC)CCC)c2)C1
